{"source": "patent US9994528B2", "about": "“Certain amino-pyridines and amino-triazines, compositions thereof, and methods for their use” (Cytokinetics, Inc., priority 2010, dated 2018)", "data": [{"tested_on": "rabbit skeletal myofibrils (approximately 90% fast fibers)", "test": "Activation of fast skeletal myofibrils (PUMA coupled-enzyme ATPase assay)", "type": "biochemical", "conditions": "AC1.4 = concentration at which the compound increased the enzymatic activity by 40%; myofibril suspension at calcium level pCa25; PM12 buffer pH 6.8", "in_short": "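Fast skeletal myofibrils from rabbit psoas muscle (roughly 90% fast fibers) were homogenized, washed with Triton X-100 to strip membranes, and frozen in 10% sucrose at −80° C. Their calcium-regulated ATPase activity was measured at pCa25 in PM12 buffer (12 mM Pipes, 2 mM MgCl2, 1 mM DTT, pH 6.8). A pyruvate kinase/lactate dehydrogenase system coupled ADP regeneration to NADH oxidation, read at 340 nm.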", "values": [{"smiles": "CNC(=O)c1ccc(F)c(-c2cnc(NCC3(c4ncccc4Cl)CC(F)(F)C3)nn2)c1", "note": "[{3-[3-({[1-(3-chloro(2-pyridyl))-3,3-difluorocyclobulyl]methyl}amino)(1,2,4-triazin-6-yl)]-4-fluorophenyl}-N-methylcarboxamide]", "Mean AC1.4": "B (B=1-10 uM)"}, {"smiles": "CNC(=O)c1ccc(F)c(-c2cnc(NC[C@]3(c4ncccc4Cl)C[C@H](F)C3)nn2)c1", "note": "[{3-[3-({[1-(3-chloro(2-pyridyl))-3-fluorocyclobutyl]methyl}amino)(1,2,4-triazin-6-yl)]-4-fluorophenyl}-N-methylcarboxamide]", "Mean AC1.4": "A (A=<1 uM)"}, {"smiles": "CNC(=O)c1cccc(-c2cnc(NC[C@]3(c4ncccc4Cl)C[C@H](F)C3)nn2)c1", "note": "[{3-[3-({[1-(3-chloro(2-pyridyl))-3-fluorocyclobutyl]methyl}amino)(1,2,4-triazin-6-yl)]phenyl}-N-methylcarboxamide]", "Mean AC1.4": "B (B=1-10 uM)"}, {"smiles": "CNC(=O)c1cccc(-c2cnc(NC[C@]3(c4ncccc4F)C[C@H](F)C3)nn2)c1", "note": "[{3-[3-({[3-fluoro-1-(3-fluoro(2-pyridyl))cyclobulyl]methyl}amino)(1,2,4-triazin-6-yl)]phenyl}-N-methylcarboxamide]", "Mean AC1.4": "B (B=1-10 uM)"}, {"smiles": "CNC(=O)c1ccc(O)c(-c2cnc(NC[C@]3(c4ncccc4F)C[C@H](F)C3)nn2)c1", "note": "[{3-[3-({[3-fluoro-1-(3-fluoro(2-pyridyl))cyclobutyl]methyl}amino)(1,2,4-triazin-6-yl)]-4-hydroxyphenyl}-N-methylcarboxamide]", "Mean AC1.4": "A (A=<1 uM)"}, {"smiles": "CNC(=O)c1ccc(F)c(-c2cnc(NC[C@]3(c4ncccc4F)C[C@H](F)C3)nn2)c1", "note": "[{4-fluoro-3-[3-({[3-fluoro-1-(3-fluoro(2-pyridyl))cyclobutyl]methyl}amino)(1,2,4-triazin-6-yl)]phenyl}-N-methylcarboxamide]", "Mean AC1.4": "B (B=1-10 uM)"}, {"smiles": "CNC(=O)c1ccc(F)c(-c2cnc(NCC3(c4ncccc4F)CCC3)nn2)c1", "note": "[{4-fluoro-3-[3-({[(3-fluoro(2-pyridyl))cyclobutyl]methyl}amino)(1,2,4-triazin-6-yl)]phenyl}-N-methylcarboxamide]", "Mean AC1.4": "B (B=1-10 uM)"}, {"smiles": "CC(C)(Nc1ncc(-c2ncc(CN)s2)nn1)c1ncccc1Cl", "note": "[{6-[5-(aminomethyl)(1,3-thiazol-2-yl)](1,2,4-triazin-3-yl)}[1-(3-chloro(2-pyridyl))-isopropyl]amine]", "Mean AC1.4": "D (D=>20 uM)"}, {"smiles": "NCc1cnc(-c2cnc(NC[C@]3(c4ncccc4F)C[C@H](F)C3)nn2)s1", "note": "[{6-[5-(aminomethyl)(1,3-thiazol-2-yl)](1,2,4-triazin-3-yl)}{[3-fluoro-1-(3-fluoro(2-pyridyl))cyclobutyl]methyl}amine]", "Mean AC1.4": "B (B=1-10 uM)"}, {"smiles": "CC(C)(Nc1ncc(-c2cc(CN)ccc2F)nn1)c1ncccc1F", "note": "[{6-[5-(aminomethyl-2-fluorophenyl](1,2,4-triazin-3-yl)}[1-(3-fluoro(2-pyridyl))-isopropyl]amine]", "Mean AC1.4": "D (D=>20 uM)"}]}]}
